These results are taken from paper PMC3433420 (PLoS ONE, 2012).

One assay concerns the target T1, HCK SH2 domain (Homo sapiens, UniProt P08631).
T1 construct: 93 SH2 and 2 PTB domain-containing constructs; 6X His; thioredoxin; made in house; host or cells: E. coli BL21(DE3)pLysS
Nature of the assay: FP saturation binding assay. The conditions noted are these: protein HCK, high-confidence ErbB interactions, mean of replicate hits. The procedure, abridged:
(§1)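 KD values come from least-squares fits of fluorescence polarization (ex 530, em 555 nm), corrected for thioredoxin nonspecific binding and plate baseline, with outliers pruned. Fixed 10 nM labeled peptide met a 0.002–10 µM protein series for 20 min at room temperature in HEPES/KCl/Tween/DTT buffer, pH 7.8.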

Another assay deals with T2, ABL2 SH2 domain (Homo sapiens, UniProt P42684).
T2 construct: 93 SH2 and 2 PTB domain-containing constructs; 6X His; thioredoxin; made in house; host or cells: E. coli BL21(DE3)pLysS
Briefly: FP saturation binding assay. The conditions noted are these: protein ABL2, high-confidence ErbB interactions, mean of replicate hits. The method, boiled down:
as §1

The Kd is the free concentration of one partner at which half of the binding sites on the other are occupied at equilibrium, for simple one-to-one binding. The low end stands for tighter binding, the high end for weaker binding.

SMILES strings stand for the structures. Residues, ends and D or L forms follow the SMILES beside them.

T1 sequence (P08631 144-241 limits assumed): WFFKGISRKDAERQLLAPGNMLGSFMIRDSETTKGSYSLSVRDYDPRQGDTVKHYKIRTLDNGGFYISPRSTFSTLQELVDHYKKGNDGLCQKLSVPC
T2 sequence (P42684 173-263 limits assumed): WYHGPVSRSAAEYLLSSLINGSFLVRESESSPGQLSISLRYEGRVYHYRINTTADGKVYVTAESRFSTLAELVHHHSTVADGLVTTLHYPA

Regarding `CSCC[C@H](NC(=O)[C@H](Cc1ccc(OP(=O)(O)O)cc1)NC(=O)[C@H](CCC(=O)O)NC(=O)[C@H](Cc1ccc(O)cc1)NC(=O)CNC(=O)[C@@H](N)CC(C)C)C(=O)N[C@@H](CC(=O)O)C(=O)N[C@H](C(=O)NCC(=O)N[C@@H](CO)C(=O)N[C@@H](CC(=O)O)C(=O)N[C@@H](CC(C)C)C(=O)N[C@@H](CC(=O)O)C(=O)O)C(C)C` [ErbB3 1224 13-mer] (HELM PEPTIDE1{L.G.Y.E.[O=C([C@H](Cc1ccc(OP(=O)(O)O)cc1)N[*:1])[*:2]].M.D.V.G.S.D.L.D}$$$$V2.0), binding at HCK SH2 domain was put at a Kd of 10.9 µM.
Regarding `CSCC[C@H](NC(=O)[C@H](Cc1ccc(OP(=O)(O)O)cc1)NC(=O)CNC(=O)[C@H](CCC(=O)O)NC(=O)[C@H](CCC(=O)O)NC(=O)[C@H](CC(=O)O)NC(=O)[C@H](CC(C)C)NC(=O)[C@H](CCC(=O)O)NC(=O)CNC(=O)[C@H](CCCNC(=N)N)NC(=O)[C@@H]1CCCN1)C(=O)N[C@H](C(=O)N1CCC[C@H]1C(=O)N[C@@H](CCSC)C(=O)N[C@@H](CCCNC(=N)N)C(=O)N[C@@H](CC(=O)O)C(=O)N[C@@H](CCCCN)C(=O)N[C@@H](CC(=O)O)C(=O)O)[C@@H](C)O` [ErbB4 1150 18-mer] (HELM PEPTIDE1{P.R.G.E.L.D.E.E.G.[O=C([C@H](Cc1ccc(OP(=O)(O)O)cc1)N[*:1])[*:2]].M.T.P.M.R.D.K.D}$$$$V2.0), the Kd at ABL2 SH2 domain is 8.25 µM.
